How the values were obtained:
[1] = tested on: NMDA induced behavior/seizure; assay: Inhibition of NMDA induced behavior/seizure after intrathecal injection; format: in vivo; set-up: unit not given here
[2] = tested on: CCI rats, heat hyperalgesia; assay: Test C: Neuropathic pain model (Chronic Constriction Injury), thermal hyperalgesia; format: in vivo, rat
Description: Test C: Neuropathic Pain Model (Chronic Constriction Injury)
Dose response studies are conducted with multiple groups of CCI rats dosed orally with either vehicle or the test compound three times daily with either vehicle or the test compound for 5 days. […] Efficacy is calculated as mean percentage decrease of hyperalgesia over 5 dosing days compared to vehicle-treated group. Compound potencies are expressed as the minimum effective dose (MED) in mg/Kg/day that yields a % decrease in hyperalgesia that is statistically significant, where the anti-hyperalgesic effect is determined as follows:
% of anti-hyperalgesia=(Mean of vehicle group−Mean of compound group)×100 (Mean of vehicle group)
Data analysis was performed by multiple means comparison (Dunnett's test).

[3] = tested on: panel of more than 80 non-NMDA receptors; assay: Binding to a panel of more than 80 non-NMDA receptors
Description: The compound of the invention was also tested for binding to a panel of more than 80 non-NMDA receptors.

[4] = biological target: T1, NMDA receptor glycine site (Homo sapiens, UniProt Q05586); assay: Test A: Inhibition of binding of [3H]-MDL105,519, human brain membranes
T1 construct: Human brain membranes were obtained from Analytical Biological Services Inc; tissue Analytical Biological Services Inc; host or cells: human brain membranes
Description: (§1) Test A: Inhibition of Binding of [^3H]-MDL105,519
[^3H]MDL105,519 (72 Ci/mmol) was purchased from Amersham. Cold MDL105,519 was purchased from Sigma/RBI. Binding assays were performed substantially in accordance with the protocol of B. M. Baron et al, J. Pharmacol. Exp. Ther. 279, 62 (1996), as follows. On the day of the experiment, brain membranes were thawed at room temperature and suspended in 50 mM tris acetate buffer, pH 7.4 (“TAB”). Seventy-five micro grams per milliliter protein (by using the BioRad dye) were used for competition binding. The experiments were carried out using 96-well plates. Membranes were incubated with 20 μL of compounds of various concentrations and 1.2 nM [^3H]MDL105,519 for 30 minutes at room temperature in a total volume of 250 μL. Non specific binding was determined by using 100 μM of unlabeled MDL105,519. The unlabeled MDL105,519 and compounds were dissolved as 12.5 mM stock solutions in DMSO. Final DMSO concentration in each well was kept below 1%, which concentration was found not to alter the binding results. […] The plates were dried overnight at room temperature and bound radioactivity was measured on a Packard TopCount after the addition of 45 μL per well of the MICROSCINT O. Potency of a compound is expressed as the Ki and results were calculated using Microsoft Excel spreadsheet and GraphPad Prizm software. […]

[5] = biological target: T2, NMDA receptor glycine site (Rattus norvegicus, UniProt P35439); assay: Test A: Inhibition of binding of [3H]-MDL105,519, rat brain membranes; conditions: 1.2 nM [3H]MDL105,519
T2 construct: The rat brain membranes used in the experiments were obtained from Analytical Biological Services Inc; tissue Analytical Biological Services Inc; host or cells: rat brain (cerebral cortex and hippocampus) membranes
Description: as §1
The rat brain membranes used in the experiments were obtained from Analytical Biological Services Inc., and were prepared substantially in accordance with the method of B. M. Baron et al., J. Pharmacol. Exp. Ther. 250, 162 (1989). Briefly, fresh brain tissue including cerebral cortex and hippocampus from male Sprague Dawley rats was homogenized in 0.32 M sucrose and centrifuged at low speed to separate cellular membranes from other cellular components. The membranes were then washed 3 times using deionized water, followed by treatment with 0.04% Triton X-100. Finally, membranes were washed six times in 50 mM Tris citrate buffer, pH 7.4, and frozen at −80° C. until use.
[^3H]MDL105,519 (72 Ci/mmol) was purchased from Amersham. Cold MDL105,519 was purchased from Sigma/RBI. Binding assays were performed substantially in accordance with the protocol of B. M. Baron et al, J. Pharmacol. Exp. Ther. 279, 62 (1996), as follows. […] Non specific binding was determined by using 100 μM of unlabeled MDL105,519. […] The plates were dried overnight at room temperature and bound radioactivity was measured on a Packard TopCount after the addition of 45 μL per well of the MICROSCINT O. Potency of a compound is expressed as the Ki and results were calculated using Microsoft Excel spreadsheet and GraphPad Prizm software.

[6] = tested on: formalin-induced nociceptive behaviors in rats; assay: Test B: Formalin test (formalin-induced nociceptive behaviors); format: in vivo, rat
Excerpt: The Formalin test assesses the inhibitory effects of orally administered compounds on formalin-induced nociceptive behaviors in rats (D. Dubuisson, et al., Pain 4, 161-174 (1977); H. Wheeler-Aceto et al., Psychopharmacology 104, 35-44 (1991); T. J. Coderre, et al, Pain 54, 43-50 (1993)). In the test two distinctive phases of formalin-induced behaviors are detected. A first phase response, caused by acute nociception to the noxious chemical (formalin) injected into the paw, occurs between 0 to 5 minutes. A quiescent period of between 5 to 15 min post injection follows. After the quiescent period a second phase response, caused by sensitization of the central neurons in the dorsal horn, occurs after 15 minutes and lasts up to 60 minutes. Central sensitization augments a noxious afferent input causing a stronger pain barrage to be transmitted to the brain. Inhibition of the second phase response indicates a spinal mechanism of drug action.
The procedure for the formalin test is as follows: male rats are placed in a plexiglass chamber and observed for 30-45 min. to observe their baseline activity. […] The number of paw flinches (responses) during first phase (0-5 min.) and second phase (20-35 min.) are scored and recorded. Flinch response is calculated as percentage of inhibition compared with the mean score of a saline control group. […]

| Structure (SMILES) | ED50 for inhibition of development of NMDA induced behavior/seizure [1] | Minimal effective dose / dose required, CCI model of neuropathic pain [2] | MED (minimum effective dose), CCI model of neuropathic pain ([2]; oral, three times daily for 5 days) | Interaction with non-NMDA receptors [3] | Ki [4] [nM] | Ki [5] [nM] | ED50 ([6]; Rattus norvegicus, po, read-out: Efficacy in formalin pain model, ED50) [mg/kg] | % anti-hyperalgesia in CCI model of neuropathic pain, heat hyperalgesia ([2]; oral, three times daily for 5 days, at the stated effective dose) | Efficacy in formalin pain model, ED50 ([6]; rats, oral, dosed 3 hours prior to formalin, dose producing 50% inhibition of nociceptive response) |
| --- | --- | --- | --- | --- | --- | --- | --- | --- | --- |
| Cc1ccc(-n2nc(O)c3nc4cc(Cl)ccc4c(O)c3c2=O)c(Cl)c1 [compound of the invention, 7-chloro-4-hydroxy-2-(2-chloro-4-methylphenyl)-1,2,5,10-tetrahydropyridazino[4,5-b]quinoline-1,10-dione] | 110 | less than 2 mg/Kg/day | MED < 2 mg/Kg/d | no significant interaction | 50 | 56 | ~100 |  |  |
| NCC1(CC(=O)O)CCCCC1 [gabapentin, reference compound] |  | about 90 mg/Kg/day |  |  |  |  |  | about 46% | comparable |
